Assay results from US9994556B2, “Triazole modified coumarin and biphenyl amide-based HSP90 inhibitors” (THE UNIVERSITY OF KANSAS, priority 2014, dated 2018).
Entries after “also recorded” stand apart in the source; their conditions may differ. Where two headings read alike, the source gives them in different places.

Experiments:
MCF-7 cells = experiment: MTS/PMS cell viability assay, MCF-7; format: cell-based; conditions: Homo sapiens, MCF7
Protocol: (§1) a) MTS/PMS Cell Viability Assay (SKBr3 and MCF-7 Cells)
(§2) Cells were maintained in a 1:1 mixture of Advanced DMEM/F12 (Gibco) supplemented with non-essential amino acids, L-glutamine (2 mM), streptomycin (500 μg/mL), penicillin (100 units/mL), and 10% FBS. Cells were grown to confluence in a humidified atmosphere (37° C., 5% CO2), seeded (2000/well, 100 μL) in 96-well plates, and allowed to attach overnight. Compound at varying concentrations in DMSO (1% DMSO final concentration) was added, and cells were returned to the incubator for 72 hr. At 72 hr, the number of viable cells was determined using an MTS/PMS cell proliferation kit (Promega) per the manufacturer's instructions. Cells incubated in 1% DMSO were used at 100% proliferation, and values were adjusted accordingly. IC50 values were calculated from separate experiments performed in triplicate using GraphPad Prism.

SKBr3 cells = experiment: MTS/PMS cell viability assay, SKBr3; format: cell-based; conditions: Homo sapiens, SK-BR-3
Protocol: as §1, §2

MDA-MB-468LN cell line = experiment: Promega CellTiter-Glo (CTG) luminescent assay, MDA-MB-468LN; format: cell-based; conditions: Homo sapiens, 72 hr, mean ± standard deviation
Protocol: (§3) b) Promega CellTiter-Glo (CTG) Luminescent Assay
(§4) Antiproliferative activities against MDA-MB-468LN, MDA1986 and JMAR cell lines were performed with 384-well white plates with the Promega CellTiter-Glo (CTG) luminescent assay with 72 hr compound treatment. Data analysis was performed using GraphPad Prism. Selected data were further checked with MTS/PMS cell viability assay with 96-well plates, which correlated well with Promega CellTiter-Glo luminescent assay.

PC3-MM2 cells = experiment: Sulforhodamine B assay, PC3-MM2; format: cell-based; conditions: Homo sapiens, PC3MM2, mean ± standard deviation
Protocol: (§5) c) Sulforhodamine B Assay
(§6) The sulforhodamine B assay is used to measure drug-induced cytotoxicity and cell proliferation for large-scale drug-screening applications. Its principle is based on the ability of the protein dye sulforhodamine B to bind electrostatically on pH dependent protein basic amino acid residues of trichloroacetic acid-fixed cells. The aim is to evaluate samples showing selective growth inhibition or cell killing of particular tumor cell lines.
(§7) The SRB assay is performed by treating cells using a 10 point dose-response curve. The cells are fixed with trichloroacetic acid solution and stained with sulforhodamine B dye. The stained cells are then solubilized with 10 mM Tris buffer and read for absorbance at 565 nm.
(§8) Percentage growth is calculated at each of the drug concentration levels using the absorbance raw data.
(§9) Percentage growth inhibition is calculated as: [(Ti−Tz)/(C−Tz)]×100 for concentrations for which Ti≥Tz. [(Ti−Tz)/(Tz)]×100 for concentrations for which Ti<Tz.
(§10) Ti=Absorbance of wells at a given drug concentration level.
(§11) Tz=Absorbance time zero wells
(§12) C=Absorbance of untreated wells (media and cells only)
(§13) After growth inhibition values have been calculated, the data is plotted on Graphpad Prism software. Data is entered and plotted on a sigmoidal dose-response curve using non-linear regression.

[1] = tested on: SKBr3, MDA-MB-468LN, MCF-7, MDA1986, JMAR, PC3-MM2 and LNCaP cell lines; experiment: Antiproliferative activity against the panel of cancer cell lines; format: cell-based; conditions: for activity against all cell lines tested: panel of seven cancer cell lines
Protocol: as §1
as §2, with “Prism. […]” for “Prism.”
as §3
as §4, with “assay. […]” for “assay.”
as §5, §6, §7

MDA1986 cell line = experiment: Promega CellTiter-Glo (CTG) luminescent assay, MDA1986; format: cell-based; conditions: 72 hr, mean ± standard deviation, read-out: IC50 MDA1986
Protocol: as §3, §4

JMAR cell line = experiment: Promega CellTiter-Glo (CTG) luminescent assay, JMAR; format: cell-based; conditions: 72 hr, mean ± standard deviation
Protocol: as §3, §4

LNCaP cells = experiment: Sulforhodamine B assay, LNCaP; format: cell-based; conditions: Homo sapiens, mean ± standard deviation
Protocol: as §5, §6, §7, §8, §9, §10, §11, §12, §13

[2] = tested on: Hsp90 client proteins Her2, Akt, Raf-1 and CDK6; experiment: Western blot analyses of Hsp90 client protein degradation in MCF-7 cell lysates; format: cell-based, human; conditions: for client proteins Her2, Akt, Raf-1 and CDK6 (Western blot, concentration series) / Hsp90 client proteins Her2, Akt and Raf-1 (Western blot): 24 h; for client proteins Her2, Akt, Raf-1 and CDK6 (Western blot, concentration series): increasing concentrations; for Hsp90 client proteins Her2, Akt and Raf-1 (Western blot): MCF-7 lysates, L = 1/2 and H = 5 times the antiproliferative IC50
Protocol: (§14) MCF-7 cells were cultured as described above and treated with various concentrations of drug, Geldanamycin (GDA or G) in DMSO (1% DMSO final concentration), or vehicle (DMSO) for 24 hr. Cells were harvested in cold PBS and lysed in RIPA lysis buffer containing 1 mM PMSF, 2 mM sodium orthovanadate, and protease inhibitors on ice for 1 hr. Lysates were clarified at 14000 g for 10 min at 4° C. Protein concentrations were determined using the Pierce BCA protein assay kit per the manufacturer's instructions. Equal amounts of protein (15 μg) were electrophoresed under reducing conditions, transferred to a PVDF membrane, and immunoblotted with the corresponding specific antibodies. Membranes were incubated with an appropriate horseradish peroxidase-labeled secondary antibody, developed with a chemiluminescent substrate, and visualized.

Hsp90 C-terminus = experiment: Proteolytic fingerprinting assay of Hsp90 from rabbit reticulocyte lysate; format: binding; conditions: band not detected for vehicle control
Protocol: e) Proteolytic Fingerprinting Assay
Rabbit reticulocyte (Green Hectares) incubated under conditions of protein synthesis at 30° C. in the presence of compound or vehicle (1% DMSO) for 10 minutes. Each reaction mixture contained 66.6% rabbit reticulocyte and 33.3% ATP regenerating system (10 mM creatine phosphate and 20 μg mL^−1 creatine phosphokinase) and a final concentration of 75 mM KCl. Each reaction mixture contained the indicated amount of compound. After incubating, the samples were immediately placed on ice and the indicated amount of TPCK-treated trypsin (Worthington) was added to each sample. The samples digested on ice for an additional 6 minutes and the reactions were quenched by the addition of Laemmli sample buffer followed by immediate boiling. Equal amounts of each sample were electrophoresed under reducing conditions (12% acrylamide gels), transferred to PVDF, and immunoblotted with an antibody specific to the Hsp90 C-terminus. Membranes were incubated with an appropriate horseradish peroxidase-labeled secondary antibody, developed with a chemiluminescent substrate, and visualized.

[3] = tested on: heat shock proteins Hsp27, Hsp70 and Hsp90; experiment: Western blot analyses of heat shock proteins in MCF-7 cell lysates; format: cell-based, human; conditions: MCF-7 cells, 24 h, increasing concentrations of 5f
Protocol: as §14

[4] = Table 1 coumarin-based triazoles, 72 hr, mean ± standard deviation, read-out: IC50 MCF-7
[5] = Table 1 coumarin-based triazoles, 72 hr, mean ± standard deviation, at least two experiments in triplicate, read-out: IC50 SKBr3
[6] = Table 1 coumarin-based triazoles
[7] = Table 2 biphenyl triazole analogues, 72 hr, mean ± standard deviation, read-out: IC50 MCF-7
[8] = read-out: IC50 against MCF-7 cell line
[9] = Table 2 biphenyl triazole analogues, 72 hr, mean ± standard deviation, read-out: IC50 SKBr3
[10] = Table 2 biphenyl triazole analogues

| IC50 (MCF-7 cells; [4]) | IC50 (SKBr3 cells; [5]) | IC50 (MDA-MB-468LN cell line; [6]) | IC50 (PC3-MM2 cells; [6]) | IC50 (LNCaP cells; [6]) | IC50 (MCF-7 cells; [7]) | IC50 (MCF-7 cells; [8]) | IC50 (SKBr3 cells; [9]) | IC50 (MDA-MB-468LN cell line; [10]) | IC50 (PC3-MM2 cells; [10]) | IC50 (LNCaP cells; [10]) | SMILES | activity against all cell lines tested [1] | IC50 (MDA1986 cell line; [6]) | IC50 (JMAR cell line; [6]) | client proteins Her2, Akt, Raf-1 and CDK6 (Western blot, concentration series) ([2]; MCF-7 cells) | Hsp90 client proteins Her2, Akt and Raf-1 (Western blot) [2] | IC50 (MDA1986 cell line; [10]) | IC50 (JMAR cell line; [10]) | other results |
| --- | --- | --- | --- | --- | --- | --- | --- | --- | --- | --- | --- | --- | --- | --- | --- | --- | --- | --- | --- |
| 1080 nM | 990 ± 80 nM | 2400 nM | 9800 ± 13500 nM | 15500 ± 8750 nM |  |  |  |  |  |  | Cc1c(OC2CCN(C)CC2)ccc2cc(NC(=O)c3cn(Cc4ccccc4)nn3)c(=O)oc12 [4b, 1-Benzyl-N-(8-methyl-7-((1-methylpiperidin-4-yl)oxy)-2-oxo-2H-chromen-3-yl)-1H-1,2,3-triazole-4-carboxamide] | low micromolar | 1600 ± 210 nM | 2100 ± 230 nM |  |  |  |  |  |
|  |  |  |  |  | 500 ± 20 nM | 500 nM | 170 ± 20 nM | 340 ± 70 nM | 550 ± 460 nM | 650 ± 540 nM | CN1CCC(Oc2ccc(-c3ccc(NC(=O)c4cn(Cc5ccccc5)nn4)cc3)cc2)CC1 [5b, 1-Benzyl-N-(4′-((1-methylpiperidin-4-yl)oxy)-[1,1′-biphenyl]-4-yl)-1H-1,2,3-triazole-4-carboxamide] |  |  |  | degraded in a concentration-dependent manner | decreased; also recorded: Clear degradation | 280 ± 100 nM | 500 ± 60 nM | IC50 (SKBr3 cells; read-out: IC50 against SKBr3 cell line): 170 nM; times more potent than 5a against all the cell lines evaluated ([1]; 5b compared with 5a): 2.5-8 times |
|  |  |  |  |  | 120 ± 10 nM | 120 nM | 170 ± 30 nM | 410 ± 260 nM | 360 ± 40 nM | 200 ± 40 nM | Cc1ccc(Cn2cc(C(=O)Nc3ccc(-c4ccc(OC5CCN(C)CC5)cc4)cc3)nn2)cc1 [5f, 1-(4-Methylbenzyl)-N-(4′-((1-methylpiperidin-4-yl)oxy)-[1,1′-biphenyl]-4-yl)-1H-1,2,3-triazole-4-carboxamide] |  |  |  | degraded in a concentration-dependent manner | decreased; also recorded: Clear degradation | 360 ± 50 nM | 420 ± 70 nM | 50 kDa Hsp90 fragment on trypsin proteolysis (C-terminal Hsp90 antibody) (Hsp90 C-terminus; 1 mM compound): 50 kDa band was detected; concentration able to deplete Hsp90 client proteins as well as Geldanamycin at 500 nM ([2]; MCF-7 cells, Western blot): 1 µM; heat shock proteins Hsp27, Hsp70, or Hsp90 levels [3]: No increase |

The remaining lines, values behind:

| SMILES | IC50 (MCF-7 cells; [4]) | IC50 (SKBr3 cells; [5]) | IC50 (MDA-MB-468LN cell line; [6]) | IC50 (PC3-MM2 cells; [6]) | IC50 (LNCaP cells; [6]) | IC50 (MCF-7 cells; [7]) | IC50 (MCF-7 cells; [8]) | IC50 (SKBr3 cells; [9]) | IC50 (MDA-MB-468LN cell line; [10]) | IC50 (PC3-MM2 cells; [10]) | IC50 (LNCaP cells; [10]) | activity against all cell lines tested [1] | IC50 (MDA1986 cell line; [6]) | IC50 (JMAR cell line; [6]) | client proteins Her2, Akt, Raf-1 and CDK6 (Western blot, concentration series) ([2]; MCF-7 cells) | Hsp90 client proteins Her2, Akt and Raf-1 (Western blot) [2] | IC50 (MDA1986 cell line; [10]) | IC50 (JMAR cell line; [10]) | other results |
| --- | --- | --- | --- | --- | --- | --- | --- | --- | --- | --- | --- | --- | --- | --- | --- | --- | --- | --- | --- |
| Cc1c(OC2CCN(C)CC2)ccc2cc(NC(=O)c3cn(-c4ccccc4)nn3)c(=O)oc12 [4a, N-(8-methyl-7-((1-methylpiperidin-4-yl)oxy)-2-oxo-2H-chromen-3-yl)-1-phenyl-1H-1,2,3-triazole-4-carboxamide] | 1330 ± 130 nM | 940 ± 20 nM | 1100 ± 210 nM | 2690 nM | 4720 ± 710 nM |  |  |  |  |  |  | low micromolar | 1500 ± 3400 nM | 2300 ± 400 nM |  |  |  |  |  |
| CO[C@@H]1[C@@H](OC(N)=O)[C@@H](O)[C@H](Oc2ccc3c(O)c(NC(=O)c4ccc(O)c(CC=C(C)C)c4)c(=O)oc3c2C)OC1(C)C [novobiocin, reference compound] |  |  |  |  |  |  |  |  |  |  |  |  |  |  |  |  |  |  | 50 kDa Hsp90 fragment on trypsin proteolysis (C-terminal Hsp90 antibody) (Hsp90 C-terminus; 5 mM compound): 50 kDa band was detected |
